The values below come from PubChem BioAssay AID1361 (SRMLSC, 2008).

Activity calls are given as the source filed them. No rule for the calls is given here.

The nature of the assay: mitochondrial fusion inhibitors, confirmation, cell-based, chemical genetic, wild-type and mutant (AID 1361). As to conditions: Cell-based mitochondrial fusion phenotype, imaging.
The mark [1] stands for this setting: mutant cells, measured here: mutant cell line IC50.

One may read the IC50 as the midpoint of a concentration-inhibition curve. Consider `COc1c(F)c(F)c(C(=O)O)c(Nc2ccccc2C)c1F`, for which the IC50 by setting is: (WT cells) > 25 µM (inactive); under setting [1], more than 25 µM.
`CC1CC(C)CN(C2CCN(Cc3cccnc3)CC2)C1` (centres undefined): the IC50 (WT cells) was > 25 µM (inactive) and the IC50 under setting [1] is more than 25 µM.
The matching figures for `Cc1onc(-c2ccccc2Cl)c1C(=O)Nc1sc2c(c1C(N)=O)CCC(C)C2` (centres undefined): 12.2 µM and more than 25 µM.
The matching figures for `CCc1ccccc1NC(=S)N=Nc1c(O)n(C)c2ccc(S(=O)(=O)N3CCOCC3)cc12`: 1.37 µM and 9.5 µM.
The matching figures for `CC1(C)C(=O)OC(c2cccn2-c2cccc([N+](=O)[O-])c2)C2(CCCCC2)C1=O` (centres undefined): 9.07 µM and 11.1 µM.
Take `Cc1nn(-c2ccccc2)c(C)c1C(=O)OCC(=O)N1CCN(S(=O)(=O)c2ccccc2)CC1`: the IC50 is > 25 µM (inactive) (WT cells) and more than 25 µM under setting [1].
On the same counts, the results for `COc1cc(NC(=S)NCCC(c2ccccc2)c2ccccc2)cc(OC)c1` are 4.78 µM and more than 25 µM.
The matching figures for `O=C1CCCCC1C(Nc1ccc(Br)cc1)c1ccccc1` (centres undefined): 20.5 µM and more than 25 µM.
The matching figures for `CC(C)CNS(=O)(=O)c1ccc(S(=O)(=O)N2CCCN(Cc3ccccc3)C2)cc1`: > 25 µM (inactive) and more than 25 µM.
In the case of `N#CC1=C(N)NC(SCC(=O)c2ccc(Br)cc2)=C(C#N)C12CCCCC2`, the IC50 by setting is: (WT cells) 19.4 µM; under setting [1], more than 25 µM.
Consider `COC(=O)CP(=O)(c1ccccc1)c1ccccc1`, for which the IC50 is > 25 µM (inactive) (WT cells) and more than 25 µM under setting [1].
Regarding `O=C(CN1CCN(S(=O)(=O)c2ccc(Cl)s2)CC1)NCc1ccc(Cl)cc1`, the IC50 by setting is: (WT cells) > 25 µM (inactive); under setting [1], more than 25 µM.
In the case of `Clc1ccc2ncc(-c3nnnn3-c3ccccc3)c(-c3ccccc3)c2c1`, the IC50 reads like this: (WT cells) 15.7 µM; under setting [1], more than 25 µM.
The matching figures for `CCOc1ccc(C(C(=O)NC2CCCC2)N(Cc2ccccc2)C(=O)c2nsc(Cl)c2Cl)cc1` (centres undefined): 12 µM and more than 25 µM.
The matching figures for `CCn1c(CNC(=O)c2ccco2)nnc1SCC(=O)Nc1cc(C(F)(F)F)ccc1Cl`: > 25 µM (inactive) and more than 25 µM.
Regarding `COc1ccc(-c2nc3ccccc3s2)cc1O`, the IC50 runs as follows: (WT cells) > 25 µM (inactive); under setting [1], more than 25 µM.
Regarding `N#Cc1sc2nc(N3CCCCC3)c3c(c2c1N)CCCC3`, the IC50 runs as follows: (WT cells) 20.2 µM; under setting [1], more than 25 µM.
On the same counts, the results for `O=C(O)Cn1c(CC(=O)N2CCCC2)nc2ccccc21` are > 25 µM (inactive) and more than 25 µM.
`O=C(NC1CCS(=O)(=O)C1)c1ccc(-c2ccc(Br)cc2)o1` (centres undefined): the IC50 is > 25 µM (inactive) (WT cells) and more than 25 µM under setting [1].
On the same counts, the results for `CCC(=O)Nc1ccc(N2CCN(CC)CC2)c(Cl)c1` are > 25 µM (inactive) and more than 25 µM.
The matching figures for `CC(C)N(Cc1nc(-c2ccc(Cl)cc2)no1)C(=O)CCC1CCCC1`: 13.7 µM and more than 25 µM.
On the same counts, the results for `CCCOc1ccc(C2C(C(=O)c3ccco3)=C(O)C(=O)N2CCN2CCOCC2)cc1OC` (centres undefined) are > 25 µM (inactive) and more than 25 µM.
As to `CC(C)SCc1cc(N2CCCC2)nc(-c2ccccc2)n1`, the 50% inhibitory concentration (IC50) was 23.5 µM (WT cells) and more than 25 µM under setting [1].
The matching figures for `O=C(C1=C[C@H](c2csc3ccccc23)C[C@H](OCc2ccc(CO)cc2)O1)N1CCN(Cc2ccc3c(c2)OCO3)CC1`: 2.16 µM and 10.5 µM.
On the same counts, the results for `O=C1c2ccccc2OC2(C=Cc3ccccc3O2)N1Cc1ccccc1` (centres undefined) are 5.8 µM and more than 25 µM.
On the same counts, the results for `O=C(CSCC(=O)N1CCCCC1)Nc1nc(-c2ccccc2)c(-c2ccccc2)s1` are 10.7 µM and more than 25 µM.
In the case of `COCCNC(=O)c1cccc(Nc2nc(-c3ccccc3)c3cc(Cl)ccc3n2)c1`, the IC50 was 19.4 µM (WT cells) and more than 25 µM under setting [1].
